The values below come from patent publication US4320136A, “8-Aza-16,16-difluoroprostanoids” (E. I. Du Pont de Nemours and Company, priority 1980, dated 1982).

Experiment [1] relates to PGE1. Put plainly: PGE1 antagonist test on isolated rat stomach strips. From the text: These PGE1 antagonist tests were run on isolated rat stomach strips.
The test system of experiment [2] is necrosis and inflammation of the stomach caused by ethanol. The experiment can be described thus: protection of rat stomach from ethanol-caused necrosis and inflammation (cytoprotection, oral). In kind it is in vivo, rat (fasted, male). Conditions: for inhibition in vivo at 2 mg/kg / ED50: Rattus norvegicus; for inhibition in vivo at 2 mg/kg: po, 1 h, read-out: Percent Protection 2 mg/kg, at 1 hr; for inhibition in vivo at 2 mg/kg / ED50 / Percent Protection 2 mg/kg, at 1 hr: oral; for inhibition in vivo at 2 mg/kg / Percent Protection 2 mg/kg, at 1 hr: 1 hr between compound and ethanol; for cytoprotective effect (in words): rat, in vivo; for ED50: 50% protection, at peak time; for Peak Time: interval between compound and ethanol at which greatest protection is observed. On the procedure:
Some differences in the cytoprotective properties of these optical isomers are indicated by data in Table I. Using a method similar to that of Robert [U.S. Pat. No. 4,097,603 (1978)], fasted, male rats were treated with 8-azaprostanoids orally and various times later they were treated orally with 1.0 ml of absolute ethanol. The rats were sacrificed after ethanol administration and the stomachs were removed, inspected, and rated. The ED50 values in Table I represent the doses of 8-aza-16,16-difluoroprostanoids that gave 50% protection from the necrosis and inflammation of the stomach caused by ethanol. Values for the natural prostaglandin E1 (PGE1) and for two known nonfluorinated 8-azaprostanoids are given for comparison.
*"1 hr" refers to the one hour interval between administration of compoun
and subsequent ethanol administration.
**"Peak Time" refers to that interval between administration of compound
and administration of ethanol at which greatest protection is observed.

In experiment [3] the test system is histamine-induced bronchoconstriction. The experiment can be described thus: aerosol histamine challenge test (histamine-induced bronchoconstriction). In kind it is in vivo, guinea pig. On the procedure: As has been mentioned, compounds of this invention also show activity as potential drugs for controlling bronchial asthma. Using an aerosol histamine challenge test in guinea pigs [a modification of the method of M. E. Rosenthale et al, Experientia, 26, 119 (1970)], the ability of 8-aza-16,16-difluoroprostanoids administered by i.p. injection to protect against histamine-induced bronchoconstriction was measured. Using injections of 0.5 mg/kg and evaluating the guinea pigs 60 minutes after the injections, compound 6 gave 40% protection, compound 6l (15 RS) gave 39% protection, and compound 6d(15 RS) gave 14% protection. An oral dose of compound 8 at 5 mg/kg gave 80% protection at 2 hours.

Setting [4] is: i.p. 0.5 mg/kg, 60 minutes after injection, 0.5 mg/kg.

Broadly, the ED50 is the dose at which the effect has come halfway, by size or by number of responders. A higher ED50 goes with weaker potency.

On to `CCCCCCC(F)(F)C(O)/C=C/C1CCC(=O)N1CCCCCCC(=O)OC(C)(C)C` (racemic) [Compound 6, racemic tert-Butyl 7-[2-Oxo-5(RS)-5-(4,4-difluoro-3(RS)-3-hydroxy-1n-dec-1(E)-enyl)-1-pyrrolidinyl]-heptanoate], for which, in experiment [1], the “PGE1 antagonism (in words)” value is “weaker PGE1 antagonist”. In addition, in experiment [2], the inhibition in vivo at 2 mg/kg was 32% and the “cytoprotective effect (in words)” value is on record as “some cytoprotective activity”. For the same compound, in experiment [3] (i.p. 0.5 mg/kg, 60 minutes after injection), the “protection against histamine-induced bronchoconstriction” value was 40%.

Regarding `CCCCCCC(F)(F)C(O)/C=C/C1CCC(=O)N1CCCCCCC(=O)O` (racemic) [Compound 7, racemic 7-[2-Oxo-5(RS)-(4,4-difluoro-3(RS)-hydroxy-1-n-dec-1(E)-enyl)-1-pyrrolidinyl]heptanoic Acid], in experiment [2], the inhibition in vivo at 2 mg/kg came to 91%, the median effective dose (ED50) was 0.0035 mg/kg and the “Peak Time” value stood at 15 min.

As to `CCCCCCC(F)(F)C(O)/C=C/C1CCC(=O)N1CCCCCCC(=O)OC` (racemic) [Compound 8, racemic Methyl 7-[2-Oxo-5(RS)-5-(4,4-difluoro-3(RS)-3-hydroxy-1-n-dec-1-(E)-enyl)-1-pyrrolidinyl]heptanoate], in experiment [2], the inhibition in vivo at 2 mg/kg is 91%, it took a dose of 0.005 mg/kg to reach the 50% effect level (ED50) and the “Peak Time” value amounted to 15 min. The “protection against histamine-induced bronchoconstriction” value in experiment [3] (oral 5 mg/kg, at 2 hours) is 80%.

With `CCCCC(F)(F)C(O)/C=C/C1CCC(=O)N1CCCCCCC(=O)OC(C)(C)C` (racemic) [Compound 13, racemic t-Butyl 7-[2-Oxo-5(RS)-5-(4,4-difluoro-3(RS)-3-hydroxy-1-n-oct-1(E)-enyl)-1-pyrrolidinyl]heptanoate], in experiment [2], the inhibition in vivo at 2 mg/kg came to 66%, the 50% effect level (ED50) was put at a dose of 0.8 mg/kg and the “Peak Time” value is recorded as 15 min.

For the compound `CCCCC(F)(F)C(O)/C=C/C1CCC(=O)N1CCCCCCC(=O)O` (racemic) [Compound 14, racemic 7-[2-Oxo-5(RS)-5-(4,4-difluoro-3(RS)-3-hydroxyl-1-n-oct-1(E)-enyl)-1-pyrrolidinyl]heptanoic Acid], in experiment [2], the ED50 was 0.22 mg/kg and the “Peak Time” value was 60 min.

Turning to `CC(C)(C)OC(=O)CCCCCCN1C(=O)CCC1/C=C/C(O)C(F)(F)c1ccccc1` (racemic) [Compound 21, racemic tert-Butyl 7-[2-Oxo-5(RS)-5-(4,4-difluoro-3(RS)-hydroxy-4-phenyl-1n-but-1(E)-enyl)-1-pyrrolidinyl]heptanoate], the inhibition in vivo at 2 mg/kg in experiment [2] turned out to be 68%.

On to `O=C(O)CCCCCCN1C(=O)CCC1/C=C/C(O)C(F)(F)c1ccccc1` (racemic) [Compound 22], for which the inhibition in vivo at 2 mg/kg in experiment [2] is 82%.

Turning to `CCCCCCC(F)(F)C(O)C=CC1CCC(=O)N1CCCCCCC(=O)OC(C)(C)C` (single isomer, unassigned) [6d (15RS), tert-Butyl 7-[2-Oxo-5(R or S)5(4,4-difluoro-3-hydroxy-1n-dec-1(E)-enyl)-1-pyrrolidinyl]heptanoate], the “IC50 against PGE1” value in experiment [1] was 3 to 5 µg/mL. Besides, in experiment [2], the “Percent Protection 2 mg/kg, at 1 hr” value is recorded as -5% and the “cytoprotective effect (in words)” value was “no (or a negative) cytoprotective effect”. Moreover, the “protection against histamine-induced bronchoconstriction” value in experiment [3] (setting [4]) is on record as 14%.

Take `CCCCCCC(F)(F)[C@H](O)/C=C/[C@H]1CCC(=O)N1CCCCCCC(=O)OC(C)(C)C` (single isomer, unassigned) [6l (15R), tert-Butyl 7-[2-Oxo-5(R or S)-5-(4,4-difluoro-3(R or S)-3hydroxy-1-n-dec-1(E)-enyl)-1-pyrrolidinyl]heptanoate]: the inhibition in vivo at 2 mg/kg in experiment [2] was 59%.

Regarding `CCCCCCC(F)(F)C(O)C=CC1CCC(=O)N1CCCCCCC(=O)OC(C)(C)C` (single isomer, unassigned) [6l (15RS), tert-Butyl 7-[2-Oxo-5(R or S)5(4,4-difluoro-3-hydroxy-1n-dec-1(E)-enyl)-1-pyrrolidinyl]heptanoate], the “Percent Protection 2 mg/kg, at 1 hr” value in experiment [2] came to 59%. In addition, the “protection against histamine-induced bronchoconstriction” value in experiment [3] (setting [4]) turned out to be 39%.

For the compound `CCCCCCC(F)(F)[C@@H](O)/C=C/[C@H]1CCC(=O)N1CCCCCCC(=O)OC(C)(C)C` (single isomer, unassigned) [6l (15S), tert-Butyl 7-[2-Oxo-5(R or S)-5-(4,4-difluoro-3(R or S)-3hydroxy-1-n-dec-1(E)-enyl)-1-pyrrolidinyl]heptanoate], the inhibition in vivo at 2 mg/kg in experiment [2] was determined as 9%.

In turn, `CCCCCCC(F)(F)[C@@H](O)/C=C/[C@H]1CCC(=O)N1CCCCCCC(=O)O` (single isomer, unassigned) [7l (15S), 7-[2-Oxo-5(R or S)-5-(4,4-difluoro-3(R or S)-3-hydroxy-1n-dec-1(E)-enyl)-1-pyrrolidinyl]heptanoic Acid] gave an ED50 in experiment [2] of 0.01 mg/kg.

Regarding `CCCCCC(O)C=CC1CCC(=O)N1CCCCCCC(=O)O` (stereo not shown) [7-[2-oxo-5-(3-hydroxy-1-oct-1-enyl)-1-pyrrolidinyl]heptanoic acids, reference compound], in experiment [2], the inhibition in vivo at 2 mg/kg worked out at 40%, the median effective dose (ED50) stood at 3 mg/kg and the “Peak Time” value was found to be 60 min.

In the case of `CCCCCCC(F)(F)[C@H](O)/C=C/[C@H]1CCC(=O)N1CCCCCCC(=O)O` [7l (15R), 7-[2-oxo-5(R)-5-(4,4-difluoro-3(R)-3-hydroxy-1n-dec-1(E)-enyl)-1-pyrrolidinyl]heptanoic acid], in experiment [2], the ED50 was determined as 0.0007 mg/kg and the “Peak Time” value is 15 min.

`CCCCC(F)(F)C(O)/C=C/C1CCC(=O)N1CCCCCCC(=O)OC` (stereo not shown) [Compound 15]: in experiment [2], the inhibition in vivo at 2 mg/kg was determined as 88%, the 50% effective dose (ED50) was 0.025 mg/kg and the “Peak Time” value is listed as 15 min.

`CCCCC[C@H](O)/C=C/[C@H]1[C@H](O)CC(=O)[C@@H]1CCCCCCC(=O)O` [PGE1, prostaglandin E1, reference compound]: in experiment [2], it took a dose of 0.011 mg/kg to reach the 50% effect level (ED50) and the “Peak Time” value is recorded as 5 min.

For `CCCCCC(O)C=CC1CCC(=O)N1CCCCCCC(=O)OC` (stereo not shown) [methyl 7-[2-oxo-5-(3-hydroxy-1-oct-1-enyl)-1-pyrrolidinyl]heptanoate, reference compound], in experiment [2], the inhibition in vivo at 2 mg/kg was found to be 60%, the 50% effect level (ED50) was put at a dose of 1.8 mg/kg and the “Peak Time” value was determined as 60 min.
